According to patent publication US20260274799A1, “HETEROCYCLIC DERIVATIVES, COMPOSITIONS AND USES THEREOF” (DANATLAS PHARMACEUTICALS CO., LTD., priority 2023, published 2026):

Target: T1, PPARγ-LBD (UniProt ID: P37231-2) (Homo sapiens, UniProt P37231)
T1 construct: PPARγ-LBD (UniProt ID: P37231-2) was expressed and purified in insect system; made in house
T1 sequence (P37231 238-503 limits assumed): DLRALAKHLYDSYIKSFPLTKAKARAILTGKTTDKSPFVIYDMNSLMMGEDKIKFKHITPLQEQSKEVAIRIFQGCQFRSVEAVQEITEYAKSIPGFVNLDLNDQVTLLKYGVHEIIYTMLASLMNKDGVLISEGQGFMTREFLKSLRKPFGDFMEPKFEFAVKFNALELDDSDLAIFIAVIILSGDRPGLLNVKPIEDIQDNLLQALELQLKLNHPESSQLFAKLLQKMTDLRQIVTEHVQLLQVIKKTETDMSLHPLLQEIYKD
Assay: PPARγ-SMRT recruitment assay (TR-FRET)
Format: biochemical
Details: for EC50: TR-FRET, SMRT peptide recruitment to PPARγ-LBD, 120 min pre-incubation; for Emax: 1 h, max value of % Activation, high control 10 uM control compound, low control 1% DMSO, read-out: Top %
Description: PPARγ TR-FRET assay was initiated to evaluate potential activatory effect of the compounds of the present disclosure for SMRT recruitment to PPARγ protein. PPARγ-LBD (UniProt ID: P37231-2) was expressed and purified in insect system and stored at −80° C. in aliquots. Biotinylated SMRT peptide was synthesized (Biotin-[…]). 5 μL protein solution mixture consisting of 10 nM PPARγ-LBD and 2 nM Anti-His Eu (Cisbio, 61HISKLA) in assay buffer (25 mM HEPES pH7.4, 25 mM KCl, 1 mM EDTA, 0.01% BSA, 0.01% Tween-20, 1 mM TCEP) was added to 384-well plates containing duplicate 10-point dose response titration of compounds in 5 μL assay buffer (1% f.c. DMSO(v/v)). After 120 min pre-incubation at room temperature, 5 μL peptide solution mixture consisting of 50 nM Biotin-SMRT peptide and 25 nM Streptavidin-XL665 (Cisbio, 610SAXLA) added to plates. Plates were incubated for 60 min. and read in CLARIOstar Plus plate reader with Ex/Em 620 nm/[…]. Average TR-FRET ratio of high control (Wells with 10 uM control compound) was calculated as High Control (HC). Average TR-FRET ratio of low control (Wells with 1% DMSO) was calculated as Low control (LC). For one compound, top % is the max value of % Activation.
EC50 values were determined by fitting the data to the standard 4 parameters with Hill Slope using GraphPad Prism software. […] ND: No Determine.

| Compound | EC50 [nM] | Emax [%] |
| --- | --- | --- |
| CS(=O)(=O)c1ccc(C#N)cc1-c1cc(=O)c2c(F)c(C#Cc3ccncc3)c(F)cc2[nH]1 [Example 22, 3-(5,7-Difluoro-4-oxo-6-(pyridin-4-ylethynyl)-1,4-dihydroquinolin-2-yl)-4-(methylsulfonyl)benzonitrile] | < 100 |  |
| CS(=O)(=O)c1ccc(C#N)cc1-c1cc(=O)c2c(F)c(C#Cc3ccccc3C#N)c(F)cc2[nH]1 [Example 42, 3-(6-((2-Cyanophenyl)ethynyl)-5,7-difluoro-4-oxo-1,4-dihydroquinolin-2-yl)-4-(methylsulfonyl)benzonitrile] | < 100 | 231 |
| COc1ccccc1C#Cc1c(F)cc2[nH]c(-c3cc(C#N)ccc3S(C)(=O)=O)cc(=O)c2c1F [Example 30, 3-(5,7-Difluoro-6-((2-methoxyphenyl)ethynyl)-4-oxo-1,4-dihydroquinolin-2-yl)-4-(methylsulfonyl)benzonitrile] | < 100 | 283 |
| CS(=O)(=O)c1ccc(C#N)cc1-c1cc(=O)c2c(F)c(OCc3ccccc3)c(F)cc2[nH]1 [Example 18, 3-(6-(Benzyloxy)-5,7-difluoro-4-oxo-1,4-dihydroquinolin-2-yl)-4-(methylsulfonyl)benzonitrile] | < 100 |  |
| Cc1noc(C)c1C#Cc1c(F)cc2[nH]c(-c3cc(C#N)ccc3S(C)(=O)=O)cc(=O)c2c1F [Example 35, 3-(6-((3,5-Dimethylisoxazol-4-yl)ethynyl)-5,7-difluoro-4-oxo-1,4-dihydroquinolin-2-yl)-4-(methylsulfonyl)benzonitrile] | < 100 | 243 |
| CS(=O)(=O)c1ccc(C#N)cc1-c1cc(=O)c2c(F)c(C#Cc3ccccc3OC(F)(F)F)c(F)cc2[nH]1 [Example 36, 3-(5,7-Difluoro-4-oxo-6-((2-(trifluoromethoxy)phenyl)ethynyl)-1,4-dihydroquinolin-2-yl)-4-(methylsulfonyl)benzonitrile] | < 100 | 322 |

The next lines start with the values.

| EC50 [nM] | Emax [%] | Compound |
| --- | --- | --- |
| < 100 | 208 | CC#Cc1c(F)cc2[nH]c(-c3cc(C#N)ccc3S(C)(=O)=O)cc(=O)c2c1F [Example 19, 3-(5,7-Difluoro-4-oxo-6-(prop-1-yn-1-yl)-1,4-dihydroquinolin-2-yl)-4-(methylsulfonyl)benzonitrile] |
| < 100 |  | CC(C)C#Cc1c(F)cc2[nH]c(-c3cc(C#N)ccc3S(C)(=O)=O)cc(=O)c2c1F [Example 21, 3-(5,7-Difluoro-6-(3-methylbut-1-yn-1-yl)-4-oxo-1,4-dihydroquinolin-2-yl)-4-(methylsulfonyl)benzonitrile] |
| < 100 | 208 | CC(C)(N)C#Cc1c(F)cc2[nH]c(-c3cc(C#N)ccc3S(C)(=O)=O)cc(=O)c2c1F [Example 8, 3-(6-(3-Amino-3-methylbut-1-yn-1-yl)-5,7-difluoro-4-oxo-1,4-dihydroquinolin-2-yl)-4-(methylsulfonyl)benzonitrile] |
| < 100 |  | COCCC#Cc1c(F)cc2[nH]c(-c3cc(C#N)ccc3S(C)(=O)=O)cc(=O)c2c1F [Example 49, 3-(5,7-Difluoro-6-(4-methoxybut-1-yn-1-yl)-4-oxo-1,4-dihydroquinolin-2-yl)-4-(methylsulfonyl)benzonitrile] |
| < 100 | 197 | CS(=O)(=O)c1ccc(C#N)cc1-c1cc(=O)c2c(F)c(C#CC3COC3)c(F)cc2[nH]1 [Example 24, 3-(5,7-Difluoro-6-(oxetan-3-ylethynyl)-4-oxo-1,4-dihydroquinolin-2-yl)-4-(methylsulfonyl)benzonitrile] |
| < 100 | 207 | CS(=O)(=O)c1ccc(C#N)cc1-c1cc(=O)c2c(F)c(C#CC3(O)COC3)c(F)cc2[nH]1 [Example 7, 3-(5,7-Difluoro-6-((3-hydroxyoxetan-3-yl)ethynyl)-4-oxo-1,4-dihydroquinolin-2-yl)-4-(methylsulfonyl)benzonitrile] |
